Data taken from patent US9951065B2 (Gilead Sciences, Inc., priority 2015, dated 2018).

Target: T1, IDO1 (Homo sapiens, UniProt P14902)
T1 construct: HeLa cells were treated with a test compound in the presence of IFNγ, which induces IDO1 expression; host or cells: H1-HeLa cells, IDO1 induced with IFNγ
Assay: Cell-based (HeLa) assay for measurement of IDO1 inhibition (kynurenine levels in supernatant after IFNγ induction)
Settings: HeLa cells, geometric mean of a minimum of four determinations
Method in brief: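 IDO1 activity is read as kynurenine released into the medium, detected with Ehrlich's reagent (p-dimethylaminobenzaldehyde) at 480 nm after TCA treatment. HeLa cells were exposed 48 h to compounds in 0.5% DMSO alongside IFNγ induction. Values normalized to no-IFNγ and IFNγ controls; four-parameter EC50 given as geometric mean of ≥4 determinations.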

[1] = IFNγ-induced IDO1, kynurenine in supernatant after 48 hour incubation
[2] = IFNγ-induced IDO1, kynurenine in supernatant, 48 hour incubation

T1 sequence (P14902 whole entry): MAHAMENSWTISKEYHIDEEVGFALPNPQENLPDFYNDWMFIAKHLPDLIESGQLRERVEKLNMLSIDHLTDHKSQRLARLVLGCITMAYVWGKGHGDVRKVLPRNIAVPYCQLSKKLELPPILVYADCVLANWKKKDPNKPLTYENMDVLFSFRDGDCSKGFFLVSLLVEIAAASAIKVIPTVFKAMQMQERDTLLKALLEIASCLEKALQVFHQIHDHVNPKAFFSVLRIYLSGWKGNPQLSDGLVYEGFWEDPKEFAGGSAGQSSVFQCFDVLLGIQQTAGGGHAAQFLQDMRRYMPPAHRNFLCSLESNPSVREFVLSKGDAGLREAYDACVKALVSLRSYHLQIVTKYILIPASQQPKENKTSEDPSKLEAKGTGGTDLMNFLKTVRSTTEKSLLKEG

Compound	EC50 [1]	EC50 [2]
NCc1nc2c(F)ccc(/C(=N/O)Nc3ccc(F)c(Cl)c3)c2[nH]1 [Example 291, 2-(aminomethyl)-N-(3-chloro-4-fluorophenyl)-4-fluoro-N′-hydroxy-1H-benzo[d]imidazole-7-carboximidamide]	2650 nM	
O/N=C(\Nc1ccc(F)c(Cl)c1)c1ccnc2nc(CCN3CCOCC3)[nH]c12 [Example 191, N-(3-Chloro-4-fluorophenyl)-N′-hydroxy-2-(2-morpholinoethyl)-1H-imidazo[4,5-b]pyridine-7-carboximidamide]	2820 nM	
O/N=C(\Nc1cccc2ccccc12)c1ccnc2nc[nH]c12 [Example 104, N′-hydroxy-N-(naphthalen-1-yl)-1H-imidazo[4,5-b]pyridine-7-carboximidamide]	1970 nM	
CNc1nc2nccc(/C(=N/O)Nc3ccc(F)c(Cl)c3)c2[nH]1 [Example 158, N-(3-Chloro-4-fluorophenyl)-N′-hydroxy-2-(methylamino)-1H-imidazo[4,5-b]pyridine-7-carboximidamide]	460 nM	
Nc1nc2c(F)c(F)cc(/C(=N/O)Nc3ccc(F)c(Br)c3)c2[nH]1 [Example 14, 2-Amino-N-(3-bromo-4-fluorophenyl)-4,5-difluoro-N′-hydroxy-1H-benzo[d]imidazole-7-carboximidamide]	494 nM	
Nc1nc2cc(F)cc(/C(=N/O)Nc3ccc(F)c(Cl)c3)c2[nH]1 [Example 370, 2-amino-N-(3-chloro-4-fluorophenyl)-5-fluoro-N′-hydroxy-1H-benzo[d]imidazole-7-carboximidamide]		1080 nM
CC(C)OC(=O)Nc1nc2nccc(/C(=N/O)Nc3ccc(F)c(Cl)c3)c2[nH]1 [Example 159, Isopropyl (7-(N-(3-chloro-4-fluorophenyl)-N′-hydroxycarbamimidoyl)-1H-imidazo[4,5-b]pyridin-2-yl)carbamate]	453 nM	
COCCCNc1nc2nccc(/C(=N/O)Nc3ccc(F)c(Cl)c3)c2[nH]1 [Example 234, N-(3-chloro-4-fluorophenyl)-N′-hydroxy-2-((3-methoxypropyl)amino)-1H-imidazo[4,5-b]pyridine-7-carboximidamide]	698 nM	
NS(=O)(=O)NCCc1nc2nccc(/C(=N/O)Nc3ccc(F)c(Cl)c3)c2[nH]1 [Example 267, N-(3-chloro-4-fluorophenyl)-N′-hydroxy-2-(2-(sulfamoylamino)ethyl)-1H-imidazo[4,5-b]pyridine-7-carboximidamide]	> 10000 nM	
O/N=C(\Nc1ccc(F)c(Cl)c1)c1ccnc2nc(CNCCCN3CCOCC3)[nH]c12 [Example 131, N-(3-Chloro-4-fluorophenyl)-N′-hydroxy-2-(((3-morpholinopropyl)amino)methyl)-1H-imidazo[4,5-b]pyridine-7-carboximidamide]	3020 nM	
CN(C)[C@H]1CCCC[C@@H]1Nc1nc2c(F)c(F)cc(/C(=N/O)Nc3ccc(F)c(Cl)c3)c2[nH]1 [Example 444, N-(3-chloro-4-fluorophenyl)-2-(((1S,2S)-2-(dimethylamino)cyclohexyl)amino)-4,5-difluoro-N′-hydroxy-1H-benzo[d]imidazole-7-carboximidamide]		3140 nM
O/N=C(\Nc1ccc(F)c(Cl)c1)c1ccnc2nc(NCCNCC(F)F)[nH]c12 [Example 230, N-(3-chloro-4-fluorophenyl)-2-((2-((2,2-difluoroethyl)amino)ethyl)amino)-N′-hydroxy-1H-imidazo[4,5-b]pyridine-7-carboximidamide]	3840 nM	
O/N=C(\Nc1cccc(Cl)c1)c1ccnc2nc(CCN3CCCC3)[nH]c12 [Example 268, N-(3-chlorophenyl)-N′-hydroxy-2-(2-(pyrrolidin-1-yl)ethyl)-1H-imidazo[4,5-b]pyridine-7-carboximidamide]	952 nM	
O/N=C(\Nc1ccc(F)c(Cl)c1)c1ccnc2nc(CN3CCOCC3)[nH]c12 [Example 112, N-(3-Chloro-4-fluorophenyl)-N′-hydroxy-2-(morpholinomethyl)-1H-imidazo[4,5-b]pyridine-7-carboximidamide]	9530 nM	
COCc1nc2nccc(/C(=N/O)Nc3ccc(F)c(Cl)c3)c2[nH]1 [Example 110, N-(3-Chloro-4-fluorophenyl)-N′-hydroxy-2-(methoxymethyl)-1H-imidazo[4,5-b]pyridine-7-carboximidamide]	2320 nM	
O=S(=O)(CCNc1nc2nccc(/C(=N/O)Nc3ccc(F)c(Cl)c3)c2[nH]1)N1CCOCC1 [Example 236, N-(3-chloro-4-fluorophenyl)-N′-hydroxy-2-((2-(morpholinosulfonyl)ethyl)amino)-1H-imidazo[4,5-b]pyridine-7-carboximidamide]	4770 nM	
Nc1nc2nccc(/C(=N/O)Nc3ccc(F)c(Cl)c3)c2[nH]1 [Example 153, 2-Amino-N-(3-chloro-4-fluorophenyl)-N′-hydroxy-1H-imidazo[4,5-b]pyridine-7-carboximidamide]	897 nM	
O/N=C(\Nc1ccc(F)c(Cl)c1)c1ccnc2nc(CNCc3ccccn3)[nH]c12 [Example 121, N-(3-Chloro-4-fluorophenyl)-N′-hydroxy-2-(((pyridin-2-ylmethyl)amino)methyl)-1H-imidazo[4,5-b]pyridine-7-carboximidamide]	1370 nM	
O/N=C(\Nc1ccc(F)c(Cl)c1)c1cc(F)c(F)c2nc(NCC34CCCN3CCC4)[nH]c12 [Example 471, N-(3-chloro-4-fluorophenyl)-4,5-difluoro-2-(((hexahydro-1H-pyrrolizin-7a-yl)methyl)amino)-N′-hydroxy-1H-benzo[d]imidazole-7-carboximidamide]		852 nM
O/N=C(\Nc1ccc(F)c(Cl)c1)c1cc(F)c(F)c2nc(NCCCNc3ccccn3)[nH]c12 [Example 297, N-(3-chloro-4-fluorophenyl)-4,5-difluoro-N′-hydroxy-2-((3-(pyridin-2-ylamino)propyl)amino)-1H-benzo[d]imidazole-7-carboximidamide]	1150 nM	
COCCN1CCC(Nc2nc3nccc(/C(=N/O)Nc4ccc(F)c(Cl)c4)c3[nH]2)C1 (stereo not drawn) [Example 281, N-(3-chloro-4-fluorophenyl)-N′-hydroxy-2-((1-(2-methoxyethyl)pyrrolidin-3-yl)amino)-1H-imidazo[4,5-b]pyridine-7-carboximidamide]	1260 nM	
CN(CCc1nc2nccc(/C(=N/O)Nc3ccc(F)c(Cl)c3)c2[nH]1)CC1CCCCC1 [Example 391, N-(3-chloro-4-fluorophenyl)-2-(2-((cyclohexylmethyl)(methyl)amino)ethyl)-N′-hydroxy-1H-imidazo[4,5-b]pyridine-7-carboximidamide]		1480 nM
Cn1nccc1CNc1nc2c(F)c(F)cc(/C(=N/O)Nc3ccc(F)c(Cl)c3)c2[nH]1 [Example 299, N-(3-chloro-4-fluorophenyl)-4,5-difluoro-N′-hydroxy-2-(((1-methyl-1H-pyrazol-5-yl)methyl)amino)-1H-benzo[d]imidazole-7-carboximidamide]	3440 nM	
CO[C@@H]1CN(C)C[C@H]1Nc1nc2nccc(/C(=N/O)Nc3ccc(F)c(Cl)c3)c2[nH]1 [Example 479, N-(3-chloro-4-fluorophenyl)-N′-hydroxy-2-(((3R,4R)-4-methoxy-1-methylpyrrolidin-3-yl)amino)-1H-imidazo[4,5-b]pyridine-7-carboximidamide]		1070 nM
